According to US12528816B2, “Substituted imidazo [1,2-b] pyridazines and [1, 2, 4] triazolo [ 4,3-b] pyridazines as camkii inhibitors” (Cardurion Pharmaceuticals, INC., priority 2020, dated 2026):

molecular target: T1, human CaMKIIδ (Homo sapiens, UniProt Q13557); test: Evaluation of in vitro CaMKII inhibitory activity (binding assay, TR-FRET); settings: not given
T1 construct: Full-length, glutathione-S-transferase(GST)-tagged, human CaMKIIδ was purchased from Carna Biosciences; purchased Carna Biosciences (CaMKIIδ); Wako Pure Chemical Industries (calmodulin) 02-111
Procedure, shortened: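 Inhibitors, in eight concentrations of 4-fold dilution, were incubated 1 h at room temperature with a protein–fluorescent probe premix preformed 30 min on ice, containing calmodulin and terbium anti-GST antibody. Displacement read by TR-FRET in duplicate; IC50 by logistic fitting.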

C[C@@H](Cn1cncn1)Oc1cc(-c2ccn3ncc(-c4cc(F)ccc4C#N)c3n2)ccn1 [compound 286] was tested, and the IC50 was < 10 nM.

same assay, conditions: in vitro CaMKII inhibitory activity (binding assay), human CaMKIIδ; read-out: Act

Compared with Cc1c(-c2cnc3ccc(-c4ccc(F)c(O[C@@H](C)Cn5cnnn5)c4)nn23)c(C(F)(F)F)nn1C [compound 266], C[C@@H](Cn1cnnn1)Oc1cc(-c2ccc3ncc(-c4cc(F)cn(C)c4=O)n3n2)ccc1F [compound 317] is lower in IC50: > 100 nM for the first, < 10 nM for the second. The second is the more potent here.

First: COc1nccnc1-c1cnc2ccc(-c3ccc(F)c(O[C@@H](C)Cn4cnnn4)c3)nn12 [compound 268]
Second: C[C@@H](Cn1cnnn1)Oc1cc(-c2ccc3ncc(-c4nccnc4C#N)n3n2)ccc1F [compound 290]
The IC50 of the first is higher: 10 to 100 nM for the first, < 10 nM for the second. The second is the more potent here.

COc1ncc(F)cc1-c1cnc2ccc(-c3ccc(F)c(O[C@@H](C)Cn4cnnn4)c3)nn12 [compound 270] and COc1ncc(F)cc1-c1cnc2ccc(-c3cccc(O[C@@H](C)Cn4cnnn4)c3)nn12 [compound 315] cannot be ordered by IC50: < 10 nM for the first, < 10 nM for the second.

Compared with C[C@@H](Cn1cnnn1)Oc1cccc(-c2ccc3ncc(-c4cc[nH]c(=O)c4C#N)n3n2)c1 [compound 272, 2-oxo-4-[6-(3-{[(2S)-1-(1H-tetrazol-1-yl)propan-2-yl]oxy}phenyl)imidazo[1,2-b]pyridazin-3-yl]-1,2-dihydropyridine-3-carbonitrile], C[C@@H](Cn1cnnn1)Oc1cccc(-c2ccc3ncc(-c4[nH]ccc(=O)c4C#N)n3n2)c1 [compound 301, 4-oxo-2-[6-(3-{[(2S)-1-(1H-tetrazol-1-yl)propan-2-yl]oxy}phenyl)imidazo[1,2-b]pyridazin-3-yl]-1,4-dihydropyridine-3-carbonitrile] is higher in IC50: < 10 nM for the first, 10 to 100 nM for the second.

Compared with C[C@@H](Cn1cnnn1)Oc1cccc(-c2ccc3ncc(-c4ncncc4C#N)n3n2)c1 [compound 273], C[C@@H](Cn1cnnn1)Oc1cccc(-c2ccc3ncc(-c4ccncc4C#N)n3n2)c1 [compound 279, 4-[6-(3-{[(2S)-1-(1H-tetrazol-1-yl)propan-2-yl]oxy}phenyl)imidazo[1,2-b]pyridazin-3-yl]pyridine-3-carbonitrile] is lower in IC50: 10 to 100 nM for the first, < 10 nM for the second.

C[C@@H](Cn1cnnn1)Oc1cccc(-c2ccc3ncc(-c4nccc(C5CC5)c4C#N)n3n2)c1 [compound 274] and C[C@@H](Cn1cnnn1)Oc1cccc(-c2ccc3ncc(-c4nnccc4C#N)n3n2)c1 [compound 280] cannot be ordered by IC50: < 10 nM for the first, < 10 nM for the second.

First: C[C@@H](Cn1cnnn1)Oc1cccc(-c2ccc3ncc(-c4c[n+]([O-])ccc4C#N)n3n2)c1 [compound 276]
Second: C[C@@H](Cn1cnnn1)Oc1cccc(-c2ccc3ncc(-c4cc[n+]([O-])cc4C#N)n3n2)c1 [compound 282]
The IC50 of the first is lower: < 10 nM for the first, 10 to 100 nM for the second. The first is the more potent here.

Cc1cnc(C#N)c(-c2cnc3ccc(-c4cccc(O[C@@H](C)Cn5cnnn5)c4)nn23)n1 [compound 277] and COc1cnc(C#N)c(-c2cnc3ccc(-c4cccc(O[C@@H](C)Cn5cnnn5)c4)nn23)n1 [compound 285] cannot be ordered by IC50: < 10 nM for the first, < 10 nM for the second.

Cc1ccc(C#N)c(-c2cnc3ccc(-c4cccc(O[C@@H](C)Cn5cnnn5)c4)nn23)n1 [compound 278] and COc1nc(-c2cnc3ccc(-c4cccc(O[C@@H](C)Cn5cnnn5)c4)nn23)ccc1C#N [compound 312] cannot be ordered by IC50: < 10 nM for the first, < 10 nM for the second.

COc1cnc(-c2cnc3ccc(-c4cccc(O[C@@H](C)Cn5cnnn5)c4)nn23)c(C#N)c1 [compound 281] and COc1ncc(Cl)cc1-c1cnc2ccc(-c3cccc(O[C@@H](C)Cn4cnnn4)c3)nn12 [compound 323] cannot be ordered by IC50: < 10 nM for the first, < 10 nM for the second.

C[C@@H](Cn1cnnn1)Oc1cccc(-c2ccc3ncc(-c4cnccn4)n3n2)c1 [compound 283] and COc1ncc(C)cc1-c1cnc2ccc(-c3cccc(O[C@@H](C)Cn4cnnn4)c3)nn12 [compound 327] cannot be ordered by IC50: < 10 nM for the first, < 10 nM for the second.

First: C[C@@H](Cn1cnnn1)Oc1cncc(-c2ccc3ncc(-c4cc(F)ccc4C#N)n3n2)c1 [compound 287, 4-fluoro-2-[6-(5-{[(2S)-1-(1H-tetrazol-1-yl)propan-2-yl]oxy}pyridin-3-yl)imidazo[1,2-b]pyridazin-3-yl]benzonitrile]
Second: C[C@@H](Cn1cnnn1)Oc1cc(-c2ccc3ncc(-c4cc(F)ccc4C#N)n3n2)ncn1 [compound 299]
The IC50 of the first is lower: < 10 nM for the first, 10 to 100 nM for the second.

C[C@@H](Cn1cnnn1)Oc1cc(-c2ccc3ncn(-c4cc(F)ccc4C#N)c3n2)ccc1F [compound 292] and C[C@@H](Cn1cnnn1)Oc1cncc(-c2ccc3ncn(-c4cc(F)ccc4C#N)c3n2)c1 [compound 316] cannot be ordered by IC50: < 10 nM for the first, < 10 nM for the second.

Compared with C[C@@H](Cn1cnnn1)Oc1ccc(F)c(-c2ccc3ncc(-c4ncccc4C#N)n3n2)c1 [compound 293], C[C@@H](Cn1cnnn1)Oc1cc(F)cc(-c2ccc3ncc(-c4ncccc4C#N)n3n2)c1 [compound 296] is lower in IC50: 10 to 100 nM for the first, < 10 nM for the second. The second is the more potent here.

C[C@@H](Cn1cnnn1)Oc1cc(-c2ccn3ncc(-c4nccnc4C#N)c3n2)ccc1F [compound 294] and C[C@@H](Cn1cnnn1)Oc1cc(-c2ccn3ncc(-c4ncccc4C#N)c3n2)ccc1F [compound 295] cannot be ordered by IC50: < 10 nM for the first, < 10 nM for the second.

First: C[C@@H](Cn1cnnn1)Oc1cc(-c2ccc3ncc(-c4c(C#N)ccc[n+]4[O-])n3n2)ccc1F [compound 297]
Second: C[C@@H](Cn1cnnn1)Oc1cc(-c2ccc3ncc(-c4cc(F)c[nH]c4=O)n3n2)ccc1F [compound 314]
The IC50 of the first is higher: 10 to 100 nM for the first, < 10 nM for the second. The second is the more potent here.

C[C@@H](Cn1cnnn1)Oc1cccc(-c2ccn3ncc(-c4nccnc4C#N)c3n2)c1 [compound 302] and C[C@@H](Cn1cnnn1)Oc1cccc(-c2ccn3ncc(-c4ncccc4C#N)c3n2)c1 [compound 304] cannot be ordered by IC50: < 10 nM for the first, < 10 nM for the second.

C[C@@H](Cn1cnnn1)Oc1cccc(-c2ccc3ncc(-c4ccccc4C=O)n3n2)c1 [compound 303] and C[C@@H](Cn1cnnn1)Oc1cccc(-c2ccc3ncc(-c4ccccc4CO)n3n2)c1 [compound 308] cannot be ordered by IC50: < 10 nM for the first, < 10 nM for the second.

C[C@@H](Cn1cnnn1)Oc1cccc(-c2ccc3ncc(-c4ccccc4CN=S(C)(C)=O)n3n2)c1 [compound 306] and C[C@@H](Cn1cnnn1)Oc1cccc(-c2ccc3ncc(-c4ccccc4CN(C)C)n3n2)c1 [compound 307] fall in the same range of IC50: 10 to 100 nM for the first, 10 to 100 nM for the second.

First: C[C@@H](Cn1cnnn1)Oc1cccc(-c2ccn3ncc(-c4cnccc4C(N)=O)c3n2)c1 [compound 309]
Second: C[C@@H](Cn1cnnn1)Oc1cccc(-c2ccn3ncc(-c4cnccc4C#N)c3n2)c1 [compound 310]
The IC50 of the first is higher: 10 to 100 nM for the first, < 10 nM for the second. The second is the more potent here.

C[C@@H](Cn1cnnn1)Oc1cccc(-c2ccc3ncc(-c4cc(=O)[nH]cc4C#N)n3n2)c1 [compound 318] and C[C@@H](Cn1cnnn1)Oc1cccc(-c2ccc3ncc(-c4cc(F)c[nH]c4=O)n3n2)c1 [compound 324] cannot be ordered by IC50: < 10 nM for the first, < 10 nM for the second.

C[C@@H](Cn1cnnn1)Oc1cc(-c2ccn3ncc(-c4cc(F)ccc4C#N)c3n2)ccn1 [compound 319] and C[C@@H](Cn1cnnn1)Oc1ccnc(-c2ccc3ncn(-c4cc(F)ccc4C#N)c3n2)c1 [compound 330] cannot be ordered by IC50: < 10 nM for the first, < 10 nM for the second.

COc1cccc(-c2cnc3ccc(-c4cccc(O[C@@H](C)Cn5cnnn5)c4)nn23)c1C#N [compound 322] and Cc1c[nH]c(=O)c(-c2cnc3ccc(-c4cccc(O[C@@H](C)Cn5cnnn5)c4)nn23)c1 [compound 329] cannot be ordered by IC50: < 10 nM for the first, < 10 nM for the second.

For C[C@@H](Cn1cnnn1)Oc1cccc(-c2ccc3ncc(-c4cc(Cl)c[nH]c4=O)n3n2)c1 [compound 328], the IC50 was < 10 nM.
